# Results: US12070471B2, “Remote loading of sparingly water-soluble drugs into lipid vesicles” (CELATOR PHARMACEUTICALS, INC., priority 2014, dated 2024)
# What was measured:
# [1] = Drug precipitate loading followed by light scattering at 600 nm; format: physicochemical
# Experimental: Liposomes containing 250 mM ammonium sulfate as trapping agent and 250 mM sodium sulfate as control liposomes which would not remote load drug. The liposomes were prepared and loaded using the procedure described in Example 1 except a disposable polystyrene cuvette was used as the reaction vessel. The scattering of light at 600 nm was measured with a UV/vis spectrophotometer during the loading process.
# [2] = Reverse gradient-directed drug release from liposomes; format: physicochemical
# Experimental: Liposomes were loaded with carfilzomib as described in Example 1 and were purified into deionized water. The sample was divided into two aliquots. To the first aliquot, concentrated Hepes pH 7.4 and NaCl was added so that the final concentration was 5 mM Hepes, 145 mM NaCl (HBS). To the second aliquot, concentrated ammonium sulfate was added so that the final concentration was 250 mM. No obvious physical changes were initially observed. The samples were then heated at 65° C. for 30 min. The samples were transferred to clean eppendorf tubes and centrifuged for 10,000 rpm for 5 min after which the supernatants and precipitates were separated and tested for carfilzomib content by HPLC assay. Released drug precipitated, liposome encapsulated drug remained in the supernatant. The % carfilzomib released was calculated by […]
# [3] = Carfilzomib liposome entrapment by remote loading from precipitate (drug and lipid by HPLC after purification); format: physicochemical
# Experimental: Ammonium sulfate solution was prepared by dissolving ammonium sulfate solid to a final concentration of 250 mM (500 mequivilents of anion/L) no pH adjustment was made to yield a final pH of 5.6. Sodium sulfate solution (250 mM) was prepared by adding 0.35 g sodium sulfate to 10 mL deionized water.
# The liposomes were formed by extrusion. Lipids were dissolved in ethanol at a concentration of 500 mM HSPC (591 mg/mL total lipid) at 65° C. and the 9 volumes of the trapping agent solution heated to 65° C. was added to the ethanol/lipid solution also at 65° C. The mixture was vortexed and transferred to a 10 mL thermostatically controlled (65° C.) Lipex Extruder. The liposomes were formed by extruding 10 times through polycarbonate membranes having 0.1 um pores. After extrusion the liposomes were cooled on ice. The transmembrane electrochemical gradient was formed by purification of the liposomes by dialysis in dialysis tubing having a molecular weight cut off of 12,000-14,000. […] The conductivity of the liposome solution was measured and was indistinguishable from the dialysis medium ˜40 μS/cm.
# The lipid concentration is determined by measuring the cholesterol by HPLC using an Agilent 1100 HPLC with and Agilent Zorbax 5 um, […], Eclipse XDB-C8 column and a mobile phase of A=0.1% TFA, B=0.1% TFA/MeOH with an isocratic elution of 99% B. The flow rate is 1.0 mL/min, column temperature is 50° C., 10 μL injection and detection by absorbance at 205 nm. […] The liposome size is measured by dynamic light scattering.
# Carfilzomib (Selleck Chemicals) was dissolved in DMSO at a concentration of 10 mg/mL. […] The supernatants were purified on a Sephadex G25 column collected and analyzed by HPLC. […] The mobile phase consists of A=0.1% TFA, B=0.1% TFA/MeOH with a gradient elution starting at 50% B and increasing to 83% B in 13 min with 7 min equilibration back to 50% B. The flow rate is 1.0 mL/min, column temperature is 30 C, 10 μl injection and detection by absorbance at 205 nm. […] The lipid concentration is determined by analysis of the cholesterol by HPLC. […]
# [4] = elimination in the blood stream, unencapsulated drug; cited from earlier work
# [5] = Carfilzomib solubility as a function of DMSO content (optical density at 600 nm); format: physicochemical; conditions: 0.2 mg/mL
# Experimental: Carfilzomib was added from a stock 10 mg/mL solution in DMSO to 1 mL of a citric acid/DMSO mixture so that the composition of DMSO was 2%, 25%, 50%, 75% and 100%. The final drug concentration was 0.2 mg/mL. The solutions were prepared and measured for optical density at 600 nm. The optical density at 600 nm is a good measure of how turbid or how much scattering material (such as drug precipitates) are in a solution, generally, the more precipitates the higher the absorbance. From FIG. 8 is apparent that at DMSO concentrations below 50% vol/vol (25° C.) and 25% vol/vol (65° C.) the drug remains in a precipitated form. Only when the concentration of DMSO is increased does it become effectively solubilized at this concentration of 0.2 mg/mL.
# [6] = Remote loading of amphotericin B precipitate into TEA dextran sulfate liposomes; format: physicochemical
# Experimental: Liposomes were prepared with a lipid composition of HSPC/DSPG/Chol/PEG-DSPE in the ratio 2/0.6/2/0.3 containing 1.0 M (SO4) TEA dextran sulfate. The liposomes were separated form the non-entrapped TEA dextran sulfate by anion exchange and then by dialysis against 5 mM Hepes buffered 10% (wt/wt) sucrose pH 6.5. The liposomes were exchanged into 0.01 N HCL, 10% sucrose pH 2.0 before drug loading. Amphotericin B was dissolved in DMSO at 10 mg/ml.
# In a typical preparation, the DMSO amphotericin B solution was added dropwise to the liposomes at room temperature while the liposomes suspension was rapidly mixed on a vortex mixer. The concentration of the liposomal lipid was 5 umol (phospholipid)/mL and 0.1 mL of the amphotericin B solution was added per mL of liposomes so that the final amphotericin B concentration was about 1.0 mg/ml AmB and the final DMSO concentration was about 10% (V/V). By adjusting the amount of liposomes in the preparation various AmB/PL ratios were tested, e.g., 200, 400, 800 g/mol.
# The samples were heated at 65° C. for 15 min. Then cooled on ice for 30 minutes. The preparation was then passed through a PD10 (Sephadex G25) gel filtration column to remove any precipitated amphotericin B that was not incorporated into the liposome. […] The diameter of the drug loaded liposomes was not changed at the 200 and 400 g drug/mole lipid input ratio and were slighted larger circa 10% in the 800 g drug lipid ratio. The purified liposomes were analyzed for drug and lipid content by the HPLC method as described in Example 1.
# [7] = Remote loading of taxane derivative precipitates into liposomes; format: physicochemical
# Experimental: Liposomes were prepared using the extrusion and purification method described in Example 1. The lipid composition was POPC/cholesterol (3/0.5, mol/mol). The trapping agent consisted of zinc acetate or magnesium acetate at 120 mM. A solution of either unmodify carbazitaxel or 2′succinylcarbazitaxel in DMSO at 20 mg/mL was added to the liposome solution slowly over 30 seconds while vortexing to produce a drug precipitate in the liposome solution. The target drug to phospholipid ratio was 100 g/mole lipid for unmodified carbazitaxel and 100, 150 or 200 g for succinylcarbazitaxel/mol phospholipid. The solutions are heated for 30 min at 45° C. and then cooled on ice. A sample was removed to determine the input drug to lipid ratio and the remaining solution was spun in a centrifuge at 12,000 RPM for 5 minutes to pellet any unloaded drug. The supernatant was further purified from unloaded drug using a Sephadex G25 size exclusion column eluted with 5 mM HEPES, 145 mM NaCl at pH 6.5. The purified liposomes were analyzed for drug and lipid content by HPLC as described in Example 16.
# To encapsulate the 2′ morpholine-4-ylethyl amide of succinylcabazitaxel, liposomes were prepared with a lipid composition of HSPC/DSPG/Chol/PEG-DSPE in the ratio 2/0.6/2/0.3 containing 1.0 M (SO4) TEA dextran sulfate. The liposomes were separated form the non-entrapped TEA dextran sulfate by anion exchange and then by dialysis against 5 mM Hepes buffered 10% (wt/wt) sucrose, pH 6.5. 2′ morpholine-4-ylethyl amide of succinylcabazitaxel was dissolved in DMSO at 10 mg/mL.
# In a typical preparation, the DMSO 2′ morpholine-4-ylethyl amide of succinylcabazitaxel solution was added dropwise to the liposomes at room temperature while the liposomes suspension was rapidly mixed on a vortex mixer. […] The purified liposomes were analyzed for drug and lipid content by HPLC as described in Example 16. […]
smiles,measurement,setting,value
CC(C)C[C@H](NC(=O)[C@H](CCc1ccccc1)NC(=O)CN1CCOCC1)C(=O)N[C@@H](Cc1ccccc1)C(=O)N[C@@H](CC(C)C)C(=O)[C@@]1(C)CO1 [carfilzomib],time to clarification of the solution during loading,[1]; ammonium sulfate liposomes,≤ 15 min
same,clarification of the precipitate during loading,[1]; sodium sulfate liposomes,do not show any clarification
same,drug released with reverse gradient relative to control with no reverse gradient,[2],6.5 fold
same,degradation of released drug (HPLC chromatogram vs starting material),[2]; after loading and reverse gradient release,no degradation
same,loading capacity of remote loaded liposomes relative to sodium sulfate liposomes,[3]; ammonium sulfate vs sodium sulfate liposomes,> 3 fold
same,impact of delay between precipitate formation and loading on loading efficiency,[3]; delay up to 12 h,does not have a significant impact
same,greatest payload,"[3]; triethylammonium sulfate gradient (500 mM), input 650 g drug/mol HSPC, 30 min, 10% DMSO",440±12.6 g drug/mol HSPC
same,t1/2,[4],< 20 min
same,DMSO concentration at which the drug remains in a precipitated form,[5]; 25 C,below 50 % vol/vol
same,DMSO concentration at which the drug remains in a precipitated form,[5]; 65 C,< 25 % vol/vol
C[C@@H]1[C@H](O)[C@@H](C)/C=C/C=C/C=C/C=C/C=C/C=C/C=C/[C@H](O[C@@H]2O[C@H](C)[C@@H](O)[C@H](N)[C@@H]2O)C[C@@H]2O[C@](O)(C[C@@H](O)C[C@@H](O)[C@H](O)CC[C@@H](O)C[C@@H](O)CC(=O)O[C@H]1C)C[C@H](O)[C@H]2C(=O)O [Amphotericin B],amphotericin B concentration to which final liposome preparation was readily concentrated,"[6]; 5 mM Hepes, 144 mM NaCl, pH 7.4 buffer",10 mg/mL
same,diameter of the drug loaded liposomes,[6]; 200 and 400 g drug/mole lipid input ratio,not changed
same,increase of diameter of the drug loaded liposomes,[6]; 800 g drug lipid ratio,circa 10%
same,remote loading efficiency,[6]; input 200 g drug/mole lipid,96%
same,drug content of purified preparation,[6]; input 400 g drug/mole of lipid,360 g amphotericin B/mole lipid
same,encapsulated,[6]; input 400 g drug/mole of lipid,about 90%
same,drug content of purified preparation,[6]; input 800 g drug/mole lipid,560 g amphotericin B/mole lipid
same,encapsulated,[6]; input 800 g drug/mole lipid,about 70%
"CO[C@H]1C(=O)[C@]2(C)[C@@H](OC)C[C@H]3OC[C@@]3(OC(C)=O)[C@H]2[C@H](OC(=O)c2ccccc2)[C@]2(O)C[C@H](OC(=O)[C@H](OC(=O)CCC(=O)O)[C@@H](NC(=O)OC(C)(C)C)c3ccccc3)C(C)=C1C2(C)C [2′ succinylcabazitaxel, 2′-succinylcarbazitaxel]",loading efficacy,"[7]; POPC/cholesterol liposomes with zinc acetate or magnesium acetate 120 mM, 45 C 30 min",greater than 85%
CO[C@H]1C(=O)[C@]2(C)[C@@H](OC)C[C@H]3OC[C@@]3(OC(C)=O)[C@H]2[C@H](OC(=O)c2ccccc2)[C@]2(O)C[C@H](OC(=O)[C@H](O)[C@@H](NC(=O)OC(C)(C)C)c3ccccc3)C(C)=C1C2(C)C [cabazitaxel],efficiency of loading,"[7]; 100 g carbazitaxel/mol phospholipid, calcium acetate and magnesium acetate liposomes (so in the source)",very low
same,"encapsulation, % of the added drug",[7]; TEA-dextran sulfate liposomes,< 5%
